Paper PMC3904662 (Nature, 2013)
Read-outs that look alike come from different tables or passages of the source.

Key:
[1] = target: hSERT (human serotonin transporter); conditions: cited from earlier work
[2] = target: Δ13 LeuBAT (Aquifex aeolicus, UniProt O67854, A261V/E290S/G24D/G408T/I106S/I262L/I359G/N21Y/P362G/S256G/T254S/T409G/Y265F); assay: biochemical
[3] = target: T1, wild-type LeuT (Aquifex aeolicus, UniProt O67854); assay: biochemical; conditions: saturation binding of 3H-mazindol
[4] = target: T1, wild-type LeuT

OC1(c2ccc(Cl)cc2)c2ccccc2C2=NCCN21 (stereo not drawn) [mazindol]
Kd [1]: 103 ± 4.7 nM | Kd [2]: 112 ± 18 nM | Kd [3]: 22.3 ± 5.4 µM

C[C@H](N)C(=O)O [alanine]
suppression of sertraline binding to wild-type LeuT ([4]; 3 µM 3[H]-sertraline with 5 mM Ala): could not suppress the binding of sertraline

Fc1ccc([C@@H]2CCNC[C@H]2COc2ccc3c(c2)OCO3)cc1 [paroxetine]
Kd ([4]; saturation binding of 3H-labeled drug, n=3, ±s.e.m): could not be fit to an isotherm because of low affinity | Kd [2]: 431 ± 24 nM
